Measurements reported in patent publication US8058309B2, “Protein kinase modulators and therapeutic uses thereof” (Novotyr Therapeutics Ltd., priority 2006, dated 2011).

Legend:
1376 = experiment: Proliferation assay 1376; type: cell-based; settings: Bladder, 72 hours
Method: (§1) Various cancer cell lines (listed in table 1) were plated at a density of 1000-5000 cells/well in 96-well plates in 90111 growth medium containing 10% FCS, 100 units/ml penicillin and 100 μg/ml streptomycin. Inhibitors were added a day later in 10 μl of 1% DMSO in DDW to obtain final concentrations of 0, 0.1, 0.3, 1, 3, and 10 μM. The final concentration of DMSO (0.1% DMSO) was kept constant in all samples. Medium with inhibitors was refreshed a day and two days later. Following exposure of the cells to the inhibitors for 72 hours at 37° C., the cells were fixed in 0.5% gluteraldehyde in medium for 10 min, washed three times with DDW, once with 0.1M sodium borate buffer pH 8.5 and stained with 1% methylene blue dissolved in 0.1M borate buffer solution for 60 min. Excess dye was washed out and cell-bound dye was eluted with 200 μl/well of 0.1 M HCl. The optical density value was read at 620 nm in ELISA plate reader. The data was analyzed in Microsoft Excel, using the vehicle control as 100% proliferation. The assays were performed in triplicates. The values in table 1 represent IC50 values derived from the dose-dependent growth curves obtained.
(§2) Compounds 6, 7, 8, and 9 were tested for their inhibitory potential in cell proliferation assay. In this assay cells were exposed to increasing concentrations of the molecules (at 0.1% DMSO in all wells) a day after seeding. Medium and inhibitors were refreshed every day, and following three days of treatment, cells were fixed and stained with methylene-Blue. IC50 values were determined from the curves of the optical density against compound concentration. The assay was performed in triplicates.

NCl-H1975 = experiment: Proliferation assay NCl-H1975; type: cell-based; settings: Lung, 72 hours
Method: as §1, §2

MO59K = experiment: Proliferation assay MO59K; type: cell-based; settings: Glioma, 72 hours
Method: as §1, §2

PC-10 = experiment: Proliferation assay PC-10; type: cell-based; settings: Homo sapiens, PC10, Lung, 72 hours
Method: as §1, §2

T24P = experiment: Proliferation assay T24P; type: cell-based; settings: Bladder, 72 hours
Method: as §1, §2

LIM 1215 = experiment: Proliferation assay LIM 1215; type: cell-based; settings: LIM1215, Colon, 72 hours
Method: as §1, §2

DU145 = experiment: Proliferation assay DU145; type: cell-based; settings: Homo sapiens, DU-145, Prostate, 72 hours
Method: as §1, §2

NCl-H526 = experiment: Proliferation assay NCl-H526; type: cell-based; settings: Lung, 72 hours
Method: as §1, §2

B16 [1] = experiment: Clonogenic assay B16; type: cell-based; settings: Mus musculus, Melanoma
Method: (§3) Various cancer cells (listed in table 1) were seeded at a very low concentration (19 cells/well in 96-well plates or 63 cells/well in 24-well plates) in growth medium. A day later medium was replaced with growth medium containing various concentrations of inhibitors in a final concentration of 0.1% DMSO. The inhibitor-containing medium was refreshed three times a week. Following approximately two weeks cells were fixed by adding Gluteraldehide (0.5% final concentration) for 10 min, washed three time with DDW, once with borate buffer 0.1M and stained for 1 hour with 1% Methylene Blue in borate buffer 0.1M. Access stain was washed with water, and following drying colonies were counted. Alternatively, stain was extracted by 0.1N HCl for 1 hour and absorbance at 620 nm was measured by ELISA Reader. The assays were performed in triplicates. The values in table 1 represent IC50 values derived from the dose-dependent growth curves obtained.

LIM 1899 = experiment: Proliferation assay LIM 1899; type: cell-based; settings: Colon, 72 hours
Method: as §1, §2

Colo-205 = experiment: Proliferation assay Colo-205; type: cell-based; settings: Homo sapiens, Colon, 72 hours
Method: as §1, §2

B16 [2] = experiment: Proliferation assay B16; type: cell-based; settings: Mus musculus, Melanoma, 72 hours
Method: as §1, §2

QG56 = experiment: Clonogenic assay QG56; type: cell-based; settings: Homo sapiens, QG-56, Lung
Method: as §3

HT29 = experiment: Proliferation assay HT29; type: cell-based; settings: Homo sapiens, HT-29, Colon, 72 hours
Method: as §1, §2

PC3-MM2 = experiment: Proliferation assay PC3-MM2; type: cell-based; settings: Homo sapiens, PC3MM2, Prostate, 72 hours
Method: as §1, §2

PANC1 = experiment: Proliferation assay PANC1; type: cell-based; settings: Homo sapiens, PANC-1, Pancreatic, 72 hours
Method: as §1, §2

[3] = system: ovarian cancer A2780 cells; experiment: Apoptosis (cleaved PARP) in A2780 cells; type: cell-based, human; settings: 21 hours of exposure
From the text: […] Lysate preparation and western blot were the same as described above. Apoptosis was detected by immunoblotting with rabbit anti-PARP antibodies.

AsPC1 = experiment: Proliferation assay AsPC1; type: cell-based; settings: Homo sapiens, Pancreatic, 72 hours
Method: as §1, §2

PC3 = experiment: Clonogenic assay PC3; type: cell-based; settings: Homo sapiens, PC-3, Prostate
Method: as §3

MDA MB 231 = experiment: Proliferation assay MDA MB 231; type: cell-based; settings: Homo sapiens, Breast, 72 hours
Method: as §1, §2

[4] = system: metastatic melanoma YUMAC cells; experiment: Apoptosis (cleaved PARP) in YUMAC cells; type: cell-based, human; settings: 24 hours of exposure, 3 μM
Method: In addition, lysates were prepared from cells exposed to inhibitors at various concentrations for 24 hours in the presence or the absence of FCS without stimulation. Lysate preparation and western blot were the same as described above. Apoptosis was detected by immunoblotting with rabbit anti-PARP antibodies.

Row | IC50 (NCl-H1975) [µM] | IC50 (T24P) [µM] | IC50 (DU145) [µM] | IC50 (NCl-H526) [µM] | IC50 (B16 [1]) [µM] | IC50 (Colo-205) [µM] | IC50 (B16 [2]) [µM] | IC50 (QG56) [µM] | IC50 (HT29) [µM] | IC50 (PC3-MM2) [µM] | IC50 (PANC1) [µM] | IC50 (AsPC1) [µM] | IC50 (PC3) [µM] | SMILES | IC50 1376 [µM] | IC50 (MO59K) [µM] | IC50 (PC-10) [µM] | IC50 (LIM 1215) [µM] | IC50 (LIM 1899) [µM] | Apoptosis (cleaved PARP detection) [3] | IC50 (MDA MB 231) [µM] | further results
1 | > 10 | > 10 | > 10 | > 10 | 0.8 | > 10 | 7.9 | 2.4 | > 10 | > 10 | > 10 | > 10 | 0.7 | N#C/C(=C\c1cc(O)c(O)c(Br)c1)C(=S)NCc1cc(O)c(O)c(Br)c1 [Compound 6] | 2.5 | 6.8 | > 10 | > 10 | > 10 | undergo apoptosis | > 10 | –
2 | 2.5 | 1.2 | 6.6 | > 10 | 0.4 | 5.4 | 1.9 | 1.7 | 6.8 | 2.6 | > 10 | > 10 | 4.2 | N#C/C(=C\c1cc(O)c(O)c(Br)c1)C(=S)NCc1cc(O)c(O)c(O)c1 [Compound 7] | 0.9 | 0.7 | 5.2 | 6.5 | 7.6 | undergo apoptosis | 6.3 | Cleavage of PARP (apoptosis) [4]: detected
3 | 2.3 | 0.9 | 6.5 | > 10 | 0.4 | 2.5 | 1.7 | 1.4 | 6.1 | 2.1 | > 10 | 9.5 | 1 | N#C/C(=C\c1cc(O)c(O)c(I)c1)C(=S)NCc1cc(O)c(O)c(O)c1 [Compound 8] | 0.8 | 0.9 | 5.8 | 6.4 | 7.1 | undergo apoptosis | 7.4 | Cleavage of PARP (apoptosis) [4]: detected
4 | 2.7 | 1.4 | 1.8 | > 10 | – | 1.7 | 1.4 | 0.5 | 1.5 | 6.9 | > 10 | > 10 | 1.2 | Oc1cc(CNC(=S)/C=C/c2cc(O)c(O)c(Br)c2)cc(O)c1O [Compound 9] | 1.4 | 1.4 | 3.8 | 3.3 | 2 | undergo apoptosis | > 10 | Cleavage of PARP (apoptosis) [4]: detected
